# US20240207285A1 (Melt Pharmaceuticals, Inc., priority 2022, published 2024)
# Key:
# [1] = tested on: subjects undergoing cataract extraction with lens replacement (CELR); assay: Phase 2 subjects completing the surgery without interruption; assay type: in vivo, human; conditions: Visit 2 (Day 1); Full Analysis Set
# Experimental: (§1) The number of subjects achieving analgesia response (observed) in the full analysis set was determined. Success in analgesia response was defined as NPRS <4 at the available at the available four intraoperative timepoints and a failure otherwise (e.g., any interoperative pain rescue was assumed to be a failure. Results are provided in TABLE 24. The number of subjects completing the surgery is provided in TABLE 25, and the number of subjects completing the surgery without interruption is provided in TABLE 26. For this measure, subjects completing the surgery without interruption (other than rescue medication) due to pain or anxiety were considered successes. The number of subjects requiring rescue sedative medication and those requiring analgesic medication are provided in TABLES 27 and 28, respectively. For all TABLES 24-28, p-Values between pairs of treatments were calculated and are provided.
# [2] = tested on: subjects undergoing cataract extraction with lens replacement (CELR); assay: Phase 2 subjects wanting study drug again for a second surgery (11-point Likert scale); assay type: in vivo, human
# Description: Post-operation, subjects were asked whether they would want the study drug again for a second surgery using an 11-point Likert scale of 0 (not likely at all) to 10 (extremely likely).
# [3] = tested on: subjects undergoing cataract extraction with lens replacement (CELR); assay: Phase 2 subjects requiring rescue sedative medication; assay type: in vivo, human; conditions: Visit 2 (Day 1)
# Experimental: as §1
# [4] = tested on: subjects undergoing cataract extraction with lens replacement (CELR); assay: Phase 2 treatment-emergent ocular adverse events (study eye, non-study eye, either eye); conditions: for Eye disorders, % / General disorders and administration site conditions, % / Infections and infestations, % / Injury, poisoning and procedural complications, % / Investigations, %: system organ class
# Experimental: (§2) The Phase 2 study was factorial-designed, randomized, double-blind, placebo-controlled, and included parallel-cohorts. […] Primary efficacy endpoints included appropriate sedation during the cataract surgery and management of intraoperative pain during the surgery.
# The study eye (TABLE 31) non-study eye (TABLE 32), or either eye (TABLE 33) was assessed. TEAES were defined as events that started on or after the date of the study drug administration through the end of Visit 4 or early withdrawal. Subjects with one or more adverse event within a level of Medical Dictionary for Regulatory Activities (MedDRA) were counted only once in that level.
# [5] = tested on: subjects undergoing cataract extraction with lens replacement (CELR); assay: Phase 2 subjects completing the surgery; assay type: in vivo, human; conditions: Visit 2 (Day 1); Full Analysis Set
# Experimental: as §1
# [6] = tested on: subjects undergoing cataract extraction with lens replacement (CELR); assay: Phase 2 subjects achieving procedural sedation (RSS 2 or 3 without rescue); assay type: in vivo, human; conditions: Visit 2 (Day 1), Full Analysis Set
# Experimental: A Phase 2 efficacy and safety study of the MELT-300 formulation was conducted at nine sites with over 300 enrolled subjects. MELT-300 is a sublingual, needle- and opioid-free formulation for procedural sedation during cataract surgery. […] MELT-300 utilizes fast-dissolving delivery technology (Zydis®, Catalent Inc.) to rapidly dissolve the tablet for absorption across the sublingual mucosa.
# as §2
# Achievement of procedural sedation was evaluated for each subject (see TABLE 19). Success for procedural sedation for this Phase 2 study was defined as achieving target sedation level (Ramsay Sedation Scale (RSS) scale level 2 or 3) at the start of surgery without the need for rescue sedation medication, and no need for intraoperative rescue sedation medication to maintain target sedation level.
# [7] = tested on: subjects undergoing cataract extraction with lens replacement (CELR); assay: Phase 2 subjects achieving analgesia response (NPRS <4); assay type: in vivo, human; conditions: Visit 2 (Day 1), observed
# Experimental: as §1
# [8] = tested on: subjects undergoing cataract extraction with lens replacement (CELR); assay: Phase 2 subject-rated worst pain during surgery by the numeric pain rating scale; assay type: in vivo, human; conditions: carry forward
# [9] = tested on: subjects undergoing cataract extraction with lens replacement (CELR); assay: Phase 2 mean intraoperative analgesia by the numeric pain rating scale; assay type: in vivo, human
# Experimental: An average of the available timepoints was also calculated.
# [10] = tested on: subjects undergoing cataract extraction with lens replacement (CELR); assay: Phase 2 subjects receiving opioid concomitant medication postoperatively; assay type: in vivo, human
# [11] = tested on: subjects undergoing cataract extraction with lens replacement (CELR); assay: Phase 2 subjects requiring rescue analgesic medication; assay type: in vivo, human; conditions: Visit 2 (Day 1); Full Analysis Set
# Experimental: as §1
# [12] = 11-point Likert scale 0 (not likely at all) to 10 (extremely likely)
# [13] = Average of available timepoints, adjusted for site table, carry forward
# [14] = Average of available timepoints, carry forward
# [15] = Average of available timepoints, observed
# [16] = Corneal incision, adjusted for site table, carry forward
# [17] = Corneal incision, carry forward
# [18] = Insertion of the phacoemulsion probe, adjusted for site table, carry forward
# [19] = Insertion of the phacoemulsion probe, carry forward
# [20] = Insertion of the phacoemulsion probe, observed
# [21] = Insertion of the speculum, adjusted for site table, carry forward
# [22] = Insertion of the speculum, carry forward
# [23] = Insertion of the speculum, observed
# [24] = Insertion of the synthetic replacement lens, adjusted for site table, carry forward
# [25] = Insertion of the synthetic replacement lens, carry forward
# [26] = Insertion of the synthetic replacement lens, observed
# [27] = adjusted for site, carry forward
# [28] = carry forward, repeated measures model
# [29] = observed, repeated measures model
compound,measurement,setting,value
Cc1ncc2n1-c1ccc(Cl)cc1C(c1ccccc1F)=NC2 [Midazolam 3 mg],"Subjects completing the surgery without interruption: No, %",[1],(0) %
same,"Subjects completing the surgery without interruption: Yes, %",[1],(100.0) %
same,"Want Study Drug Again, mean",[2]; [12],8.4
same,"Want Study Drug Again, median",[2]; [12],10.0
same,"Want Study Drug Again, Mean Difference versus ketamine",[2]; unpaired t-test,0.80
same,"Want Study Drug Again, Mean Difference versus placebo",[2]; unpaired t-test,0.75
same,"Subjects requiring rescue sedative medication: No, %",[3]; Full Analysis Set,(65.4) %
same,"Subjects requiring rescue sedative medication: Yes, %",[3]; Full Analysis Set,(34.6) %
same,"Subjects requiring rescue sedative medication: Intraoperatively, %",[3]; Intraoperatively,(8.6) %
same,"Subjects requiring rescue sedative medication: Pre-operatively, %",[3]; Pre-operatively,(25.9) %
same,"Cataract operation complication, %",[4]; Either Eye,(0) %
same,"Conjunctivitis bacterial, %",[4]; Either Eye,(0) %
same,"Corneal abrasion, %",[4]; Either Eye,(0) %
same,"Corneal oedema, %",[4]; Either Eye,(0) %
same,"Endophthalmitis, %",[4]; Either Eye,(0) %
same,"Eye pain, %",[4]; Either Eye,(3.4) %
same,"Foreign body sensation in eyes, %",[4]; Either Eye,(0) %
same,"Intraocular pressure increased, %",[4]; Either Eye,(2.3) %
same,"Ocular hypertension, %",[4]; Either Eye,(1.1) %
same,"Pain, %",[4]; Either Eye,(0) %
same,"Paracentesis eye, %",[4]; Either Eye,(0) %
same,"Procedural pain, %",[4]; Either Eye,(1.1) %
same,"Subjects with Any Treatment-Emergent Ocular AEs, %",[4]; Either Eye,(9.2) %
same,"Vision blurred, %",[4]; Either Eye,(1.1) %
same,"Eye disorders, %",[4]; Either Eye,(5.7) %
same,"General disorders and administration site conditions, %",[4]; Either Eye,(0) %
same,"Infections and infestations, %",[4]; Either Eye,(0) %
same,"Injury, poisoning and procedural complications, %",[4]; Either Eye,(1.1) %
same,"Investigations, %",[4]; Either Eye,(2.3) %
same,"Conjunctivitis bacterial, %",[4]; Non-Study Eye,(0) %
same,"Eye pain, %",[4]; Non-Study Eye,(0) %
same,"Subjects with Any Treatment-Emergent Ocular AEs, %",[4]; Non-Study Eye,(1.1) %
same,"Vision blurred, %",[4]; Non-Study Eye,(1.1) %
same,"Eye disorders, %",[4]; Non-Study Eye,(1.1) %
same,"Infections and infestations, %",[4]; Non-Study Eye,(0) %
same,"Cataract operation complication, %",[4]; Study Eye,(0) %
same,"Corneal abrasion, %",[4]; Study Eye,(0) %
same,"Corneal oedema, %",[4]; Study Eye,(0) %
same,"Endophthalmitis, %",[4]; Study Eye,(0) %
same,"Eye pain, %",[4]; Study Eye,(3.4) %
same,"Foreign body sensation in eyes, %",[4]; Study Eye,(0) %
same,"Intraocular pressure increased, %",[4]; Study Eye,(2.3) %
same,"Ocular hypertension, %",[4]; Study Eye,(1.1) %
same,"Pain, %",[4]; Study Eye,(0) %
same,"Procedural pain, %",[4]; Study Eye,(1.1) %
same,"Subjects with Any Treatment-Emergent Ocular AEs, %",[4]; Study Eye,(8.0) %
same,"Eye disorders, %",[4]; Study Eye,(4.6) %
same,"General disorders and administration site conditions, %",[4]; Study Eye,(0) %
same,"Infections and infestations, %",[4]; Study Eye,(0) %
same,"Injury, poisoning and procedural complications, %",[4]; Study Eye,(1.1) %
same,"Investigations, %",[4]; Study Eye,(2.3) %
same,"Paracentesis eye, %",[4]; printed in the Non-Study Eye table,(0) %
same,"Subjects completing the surgery: No, %",[5],0 (0) %
same,"Subjects completing the surgery: Yes, %",[5],100.0%
same,"Subjects achieving procedural sedation: No, %",[6],35.8%
same,"Subjects achieving procedural sedation: Yes, %",[6]; RSS 2 or 3 without rescue sedation,64.2%
same,"Subjects achieving analgesia response: Yes, %",[7]; NPRS <4 at four intraoperative timepoints,40.7%
same,"Subjects achieving analgesia response: No, %",[7],59.3%
same,"Worst Pain During Surgery, Mean Difference versus ketamine",[8],0.38
same,"Worst Pain During Surgery, Mean Difference versus placebo",[8],0.05
same,"Worst Pain During Surgery (NPRS), mean",[8]; Full Analysis Set,4.0
same,"Worst Pain During Surgery (NPRS), median",[8]; Full Analysis Set,4.0
same,"Intraoperative NPRS, LS Mean","[9]; Average of available timepoints, adjusted for site (study center covariate), carry forward",2.12
same,"Intraoperative NPRS, mean",[9]; [13],2.37
same,"Intraoperative NPRS, median",[9]; [13],2.00
same,"Intraoperative NPRS, mean",[9]; [14],2.37
same,"Intraoperative NPRS, median",[9]; [14],2.00
same,"Intraoperative NPRS, LS Mean","[9]; Average of available timepoints, carry forward, repeated measures model",2.37
same,"Intraoperative NPRS, mean",[9]; [15],2.18
same,"Intraoperative NPRS, median",[9]; [15],2.00
same,"Intraoperative NPRS, LS Mean","[9]; Average of available timepoints, observed, repeated measures model",2.46
same,"Intraoperative NPRS, mean",[9]; [16],1.8
same,"Intraoperative NPRS, median",[9]; [16],1.0
same,"Intraoperative NPRS, mean",[9]; [17],1.8
same,"Intraoperative NPRS, median",[9]; [17],1.0
same,"Intraoperative NPRS, mean","[9]; Corneal incision, observed",1.8
same,"Intraoperative NPRS, median","[9]; Corneal incision, observed",1.0
same,"Intraoperative NPRS, mean",[9]; [18],2.9
same,"Intraoperative NPRS, median",[9]; [18],3.0
same,"Intraoperative NPRS, mean",[9]; [19],2.9
same,"Intraoperative NPRS, median",[9]; [19],3.0
same,"Intraoperative NPRS, mean",[9]; [20],2.5
same,"Intraoperative NPRS, median",[9]; [20],2.0
same,"Intraoperative NPRS, mean",[9]; [21],1.1
same,"Intraoperative NPRS, median",[9]; [21],0.0
same,"Intraoperative NPRS, mean",[9]; [22],1.1
same,"Intraoperative NPRS, median",[9]; [22],0.0
same,"Intraoperative NPRS, mean",[9]; [23],1.1
same,"Intraoperative NPRS, median",[9]; [23],0.0
same,"Intraoperative NPRS, mean",[9]; [24],3.6
same,"Intraoperative NPRS, median",[9]; [24],4.0
same,"Intraoperative NPRS, mean",[9]; [25],3.6
same,"Intraoperative NPRS, median",[9]; [25],4.0
same,"Intraoperative NPRS, mean",[9]; [26],2.9
same,"Intraoperative NPRS, median",[9]; [26],3.0
same,"Intraoperative NPRS, LS Mean Difference versus ketamine",[9]; [27],0.22
same,"Intraoperative NPRS, LS Mean Difference versus placebo",[9]; [27],−0.08
same,"Intraoperative NPRS, LS Mean Difference versus ketamine",[9]; [28],0.20
same,"Intraoperative NPRS, LS Mean Difference versus placebo",[9]; [28],−0.12
same,"Intraoperative NPRS, LS Mean Difference versus ketamine",[9]; [29],0.24
same,"Intraoperative NPRS, LS Mean Difference versus placebo",[9]; [29],−0.01
same,"Received Postoperative Opioid on Day 2: No, %",[10]; Day 2,(100.0) %
same,"Received Postoperative Opioid on Day 2: Yes, %",[10]; Day 2,(0.0) %
same,"Received Postoperative Opioid on Day 2-8: No, %",[10]; Day 2-8,(100.0) %
same,"Received Postoperative Opioid on Day 2-8: Yes, %",[10]; Day 2-8,(0.0) %
same,"Subjects requiring rescue analgesic medication: No, %",[11],(56.8) %
same,"Subjects requiring rescue analgesic medication: Yes, %",[11],(43.2) %
